We go through seven compounds from ChEMBL document CHEMBL1201862, “PubChem BioAssay data set” (2004).

Experiment [1] is described as follows: MIN6 cell viability loss – mouse insulinoma, cytotoxicity control, dose response (AID 2122).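 Also: confirmatory high-throughput counterscreen run to flag cytotoxic compounds.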 The class given is functional.
The nature of experiment [2]: viability of HCT116 lacking mutant beta-catenin – cell-based, human colon tumor, dose response (AID 1045).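 Also: HCT116 colon tumor cells with beta catenin knocked out; cells exposed to compound for 60 hours.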 The class given is functional.
Experiment [3] in a line: THP-1 cell cytotoxicity, dose response, cytotoxicity control for non-replicating M. tuberculosis project (AID 489025). In kind it is functional.
Experiment [4] in a line: HepG2 cell cytotoxicity, dose response, cytotoxicity control for non-replicating M. tuberculosis project (AID 489018). In kind it is functional. Particulars: Mycobacterium tuberculosis.
A short description of experiment [5]: Vero E6 cell cytotoxicity, dose response, cytotoxicity control for non-replicating M. tuberculosis project, secondary assay (AID 492998). In kind it is functional, VeroE6. Conditions: Vero C1008.
Experiment [6] in a line: cells. In kind it is functional.
Experiment [7] is described as follows: decrease of insulin promoter-GFP reporter – imaging, high-content screening, mouse beta cells (AID 1628). In kind it is functional. Particulars: MIN6.
A short description of experiment [8]: viability of PTEN-deleted HCT116 cells – cell-based, HCT116 PTEN knockout, dose response (AID 1047).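 Also: HCT116 colon tumor cells with PTEN knocked out; cells exposed to compound for 60 hours before readout; potency for loss of cell viability measured by luminescence.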 In kind it is functional.
Another experiment deals with T1, Bcl-2-like protein 10 (Homo sapiens, UniProt Q9HD36).
T1 sequence (Q9HD36 whole entry): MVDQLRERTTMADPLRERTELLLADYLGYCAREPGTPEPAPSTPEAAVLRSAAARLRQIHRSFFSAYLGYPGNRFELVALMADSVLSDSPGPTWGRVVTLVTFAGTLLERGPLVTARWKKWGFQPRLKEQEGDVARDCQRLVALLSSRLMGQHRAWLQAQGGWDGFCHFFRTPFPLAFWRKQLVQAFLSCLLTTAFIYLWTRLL
In words: Bcl-B/TR3 peptide binding disruption – biochemical, fluorescence polarization, FITC-TR3 peptide, selectivity assay for Bfl-1 inhibitor project, primary screen (AID 748).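 Also: fluorescence polarization from a fluorescein-labelled TR3 peptide binding purified Bcl-B.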 A general note: In fluorescence polarisation assays a small probe gives low polarisation when free and higher when bound to something large.

Experiment [9] can be described thus: cells. The class given is functional, cell-based.
For experiment [10], the target named is Induced myeloid leukemia cell differentiation protein Mcl-1 (Homo sapiens, UniProt Q07820). In kind it is functional.
Chain of Induced myeloid leukemia cell differentiation protein Mcl-1 (Q07820 whole entry): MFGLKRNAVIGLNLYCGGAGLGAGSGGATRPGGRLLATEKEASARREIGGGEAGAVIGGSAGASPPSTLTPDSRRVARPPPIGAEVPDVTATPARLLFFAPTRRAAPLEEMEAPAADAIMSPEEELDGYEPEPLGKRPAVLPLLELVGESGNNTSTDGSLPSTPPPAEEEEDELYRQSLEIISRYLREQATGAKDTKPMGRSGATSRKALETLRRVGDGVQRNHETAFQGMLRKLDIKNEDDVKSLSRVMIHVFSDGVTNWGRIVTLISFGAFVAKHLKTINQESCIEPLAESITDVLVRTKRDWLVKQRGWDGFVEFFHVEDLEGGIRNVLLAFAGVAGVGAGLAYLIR
Experiment [11] is described as follows: cells. The class given is functional, cell-based. This is another data set of the same source.
Experiment [12] in a line: microbe, parasite or virus in culture. The class given is functional. Conditions: Mycobacterium tuberculosis.
In another experiment the test system is Vero. In words: cells. In kind it is functional. Particulars: Chlorocebus sabaeus.
Experiment [13] deals with T2, Aryl hydrocarbon receptor (Homo sapiens, UniProt P35869).
T2 sequence (P35869 whole entry): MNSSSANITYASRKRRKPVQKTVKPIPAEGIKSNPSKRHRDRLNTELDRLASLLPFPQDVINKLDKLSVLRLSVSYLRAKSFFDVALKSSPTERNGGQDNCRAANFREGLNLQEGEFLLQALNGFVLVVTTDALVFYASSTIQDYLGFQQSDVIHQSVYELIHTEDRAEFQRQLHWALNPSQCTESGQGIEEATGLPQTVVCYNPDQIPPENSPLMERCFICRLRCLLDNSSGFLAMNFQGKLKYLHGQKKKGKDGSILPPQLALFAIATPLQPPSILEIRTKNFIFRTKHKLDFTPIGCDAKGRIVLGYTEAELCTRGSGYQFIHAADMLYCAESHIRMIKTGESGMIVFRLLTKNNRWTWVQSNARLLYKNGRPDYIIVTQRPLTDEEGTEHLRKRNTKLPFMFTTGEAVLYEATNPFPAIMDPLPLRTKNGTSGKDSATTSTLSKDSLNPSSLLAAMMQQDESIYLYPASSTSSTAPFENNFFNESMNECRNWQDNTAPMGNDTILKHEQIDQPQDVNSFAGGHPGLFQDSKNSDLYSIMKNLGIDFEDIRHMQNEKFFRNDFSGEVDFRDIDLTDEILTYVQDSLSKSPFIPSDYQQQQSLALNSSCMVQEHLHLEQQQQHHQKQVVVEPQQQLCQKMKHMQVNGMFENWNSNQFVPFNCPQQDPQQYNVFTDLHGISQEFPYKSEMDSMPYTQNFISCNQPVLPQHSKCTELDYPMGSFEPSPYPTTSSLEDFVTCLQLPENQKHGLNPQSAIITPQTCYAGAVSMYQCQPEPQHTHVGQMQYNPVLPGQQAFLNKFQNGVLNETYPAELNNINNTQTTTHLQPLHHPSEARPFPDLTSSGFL
In words: Luminescence-based cell-based high throughput dose response assay for activators of the Aryl Hydrocarbon Receptor (AHR). [Related pubchem assays: 2796 (Primary screen (AHR activators in singlicate)), 2845 (Confirmation screen (AHR activators in triplicate)), 434939 (Counterscreen (PXR activators in triplicate)), 2804 (Summary (AHR activators))]. In kind it is ADME. On the technique in general: A counterscreen serves to expose hits that act by an unwanted route or on another target.

The nature of experiment [14]: viability of uninfected HEp-2 cells – cell-based, HTS, cytotoxicity control for RSV inhibitor project, dose response (AID 2410). The class given is functional. Particulars: human respiratory syncytial virus.
The target in experiment [15] is T3, Oxysterols receptor LXR-beta (Homo sapiens, UniProt P55055).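 Also: agonist activity at LXR measured by a cell-based luminescence readout across a dose range, run as a counterscreen for daf-12 agonists; HEK293 cells with Gal4-LXR fusion and GAL4-driven luciferase reporter; potency for activation of Gal4-LXR reporter so compounds are agonists.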
T3 sequence (P55055 whole entry): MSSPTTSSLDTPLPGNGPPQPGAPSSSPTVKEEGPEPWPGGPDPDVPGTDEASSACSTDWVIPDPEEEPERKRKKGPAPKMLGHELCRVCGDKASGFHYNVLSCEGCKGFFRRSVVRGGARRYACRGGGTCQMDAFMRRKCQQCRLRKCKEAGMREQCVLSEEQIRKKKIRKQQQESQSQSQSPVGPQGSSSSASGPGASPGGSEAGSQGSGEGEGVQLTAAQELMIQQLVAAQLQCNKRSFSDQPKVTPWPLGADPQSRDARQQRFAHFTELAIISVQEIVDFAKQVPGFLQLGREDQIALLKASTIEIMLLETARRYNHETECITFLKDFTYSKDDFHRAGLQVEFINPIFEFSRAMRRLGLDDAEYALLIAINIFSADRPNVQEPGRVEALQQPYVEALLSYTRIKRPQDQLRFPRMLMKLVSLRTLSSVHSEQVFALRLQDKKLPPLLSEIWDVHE
The class given is functional, cell-based.

The next experiment addresses X-box-binding protein 1 (Homo sapiens, UniProt P17861). The class given is functional, Cricetulus griseus.
A further experiment concerns the target T4, Protein skinhead-1 (Caenorhabditis elegans, UniProt P34707).
T4 sequence (P34707 whole entry): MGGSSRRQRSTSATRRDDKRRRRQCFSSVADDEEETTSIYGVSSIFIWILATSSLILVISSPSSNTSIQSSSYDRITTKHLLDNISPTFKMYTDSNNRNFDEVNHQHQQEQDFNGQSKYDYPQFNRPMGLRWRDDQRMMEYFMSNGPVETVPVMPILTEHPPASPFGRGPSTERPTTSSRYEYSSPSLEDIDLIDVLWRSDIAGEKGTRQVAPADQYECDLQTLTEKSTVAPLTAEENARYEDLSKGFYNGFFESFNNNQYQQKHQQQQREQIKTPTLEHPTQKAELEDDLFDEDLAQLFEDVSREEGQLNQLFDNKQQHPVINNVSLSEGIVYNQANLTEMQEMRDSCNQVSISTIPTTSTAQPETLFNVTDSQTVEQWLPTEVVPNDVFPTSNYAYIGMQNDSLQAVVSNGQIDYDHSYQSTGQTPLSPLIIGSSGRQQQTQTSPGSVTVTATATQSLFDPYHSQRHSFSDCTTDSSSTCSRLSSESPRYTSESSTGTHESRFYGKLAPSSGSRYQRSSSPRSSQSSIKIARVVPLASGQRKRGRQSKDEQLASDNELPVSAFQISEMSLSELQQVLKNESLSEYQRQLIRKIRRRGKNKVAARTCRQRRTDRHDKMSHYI
In kind it is functional.

Experiment [16] deals with DNA damage-inducible transcript 3 protein (Mus musculus, UniProt P35639). The class given is functional, Cricetulus griseus.
Chain of DNA damage-inducible transcript 3 protein (P35639 whole entry): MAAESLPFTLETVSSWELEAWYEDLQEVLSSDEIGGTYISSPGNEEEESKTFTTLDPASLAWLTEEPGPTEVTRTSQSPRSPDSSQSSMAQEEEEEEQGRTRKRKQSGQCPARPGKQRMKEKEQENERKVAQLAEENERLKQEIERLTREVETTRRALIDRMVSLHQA
A further experiment has as its target T5, Coagulation factor XII (Homo sapiens, UniProt P00748).
T5 sequence (P00748 whole entry): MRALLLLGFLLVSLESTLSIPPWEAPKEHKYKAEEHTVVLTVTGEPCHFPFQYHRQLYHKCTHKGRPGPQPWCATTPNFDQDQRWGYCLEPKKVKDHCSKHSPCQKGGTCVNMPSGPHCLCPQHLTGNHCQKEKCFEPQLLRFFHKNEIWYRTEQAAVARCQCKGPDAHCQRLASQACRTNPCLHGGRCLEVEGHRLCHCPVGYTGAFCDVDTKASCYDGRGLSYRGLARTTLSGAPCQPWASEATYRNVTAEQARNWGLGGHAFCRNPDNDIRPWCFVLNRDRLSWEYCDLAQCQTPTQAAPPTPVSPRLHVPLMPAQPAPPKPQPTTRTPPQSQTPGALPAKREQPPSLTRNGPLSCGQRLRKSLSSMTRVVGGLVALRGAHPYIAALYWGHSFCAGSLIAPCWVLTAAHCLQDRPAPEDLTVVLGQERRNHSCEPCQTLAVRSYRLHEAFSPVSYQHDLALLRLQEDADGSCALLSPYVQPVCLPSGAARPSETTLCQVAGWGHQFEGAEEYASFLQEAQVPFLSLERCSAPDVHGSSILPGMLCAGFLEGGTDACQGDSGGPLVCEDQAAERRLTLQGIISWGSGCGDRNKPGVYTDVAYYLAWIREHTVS
In words: activated coagulation factor XII inhibitor potency, concentration-effect curve, cell-free (AID 716). The class given is functional.

Activity calls are given as the source filed them.
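For Absolute IC50 (XBP1) in this document: confirmatory dose-response counter-screen serving a CHOP assay.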

Chain of X-box-binding protein 1 (P17861 whole entry): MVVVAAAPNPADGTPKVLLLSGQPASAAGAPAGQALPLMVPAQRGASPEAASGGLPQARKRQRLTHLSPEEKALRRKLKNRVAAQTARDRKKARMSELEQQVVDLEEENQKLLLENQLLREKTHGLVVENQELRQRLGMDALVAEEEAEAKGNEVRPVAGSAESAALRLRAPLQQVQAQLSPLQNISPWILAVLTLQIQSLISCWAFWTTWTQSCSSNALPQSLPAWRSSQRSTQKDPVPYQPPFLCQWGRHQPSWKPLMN

What is called IC50 is the midpoint of a concentration-inhibition curve. Usually EC50 stands for the midpoint of the concentration-response curve. In the case of `COc1cccc(CNCCc2c[nH]c3ccccc23)c1OCc1ccc(F)cc1`, the figures for the IC50 (in experiment [1]; in the experiment “cells [6]”; in [7]) were 3.37 µM (active), 16.4 µM (active) and 2.56 µM (active), respectively. Further, the EC50 in experiment [2] was 6.39 µM (active); in experiment [8] it was 5.74 µM (active). Further, the CC50 in experiment [3] was 15.6 µM (active); in experiment [4], 9.79 µM (active); in [5], 13.4 µM (active).

Take `COc1cccc(N2CCN(Cc3ccsc3)CC2)c1`: the IC50 at Bcl-2-like protein 10 is > 100 µM (inactive).

As to `Cc1ccc(N=Nc2ccc(O)c(/C=N\NC(=O)c3ccc(N)cc3)c2)cc1C`, the EC50 in “cells [9]” and in the experiment “cells [11]” was > 350 µM (not active) in each case. Further, the IC50 was 2.62 µM (active) in experiment [10] and > 100 µM (inactive) at Bcl-2-like protein 10.

Turning to `O=C(c1ccc(Cl)cc1)N1N=C(c2ccccn2)CC1(O)C(F)(F)F` (stereo not drawn), the CC50 was 32.6 µM (active) in experiment [12]; 11.6 µM (active) in experiment [3]; 15.2 µM (active) in [4]; 20.4 µM (active) with Vero; 13.3 µM (active) in [5]. Further, the IC50 in the experiment “cells [6]” is 3.69 µM (active).

Turning to `Clc1ccc(Nc2nc(-c3cccs3)cs2)nc1`, the results for the EC50 in experiment [13] and in experiment [15] were 1.58 µM (active) and > 67.5 µM (inactive), respectively. In addition, the CC50 in [14] is 8.33 µM (active). In addition, the “Absolute IC50 (XBP1)” value on X-box-binding protein 1 came out at 10 µM. In addition, the IC50 at Protein skinhead-1 is 13.6 µM (active). Also, in experiment [16], the “Absolute IC50 (CHOP)” value was 10 µM.

Turning to `Clc1ccc(-c2csc(N/N=C/c3cccnc3)n2)c(Cl)c1`, the “Absolute IC50 (XBP1)” value on X-box-binding protein 1 is 10 µM. Besides, in [16], the “Absolute IC50 (CHOP)” value came out at 10 µM.

For the compound `CC(=O)Nc1nc(=O)c2ccccc2s1`, the IC50 on Coagulation factor XII is > 50 µM (inactive).
